Legend:
[1] = test system: KMRC-1 (Kidney Carcinoma); experiment: combination Emax (second highest fraction inhibited in the dose matrix, 72 h); higher = more inhibition; extreme values may be limits of the assay
Summary of the method: (§1)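 Cell lines in DMEM/F12 or RPMI with 10% FBS were plated in 1536-well plates, held 24 hours at 37°C, 5% CO2, then given two-drug dose matrices for 72 hours (DMSO typically 0.2%). Viability was read by CellTiter-Glo 2.0 luminescence and scaled as inhibition from 0 (vehicle wells) to 1 (blank wells). Combination Emax is the second-highest inhibition in the matrix; Bliss excess is observed combination effect minus expected EA + EB − EA·EB, EA and EB being single-agent effects.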

[2] = test system: DU-145 (Prostate Carcinoma); experiment: as above
Summary of the method: as §1

[3] = test system: MOG-G-UVW (Low Grade Glioma); experiment: as above
Summary of the method: as §1

[4] = test system: SKN (Other Solid Carcinomas); experiment: as above
Summary of the method: as §1

[5] = test system: SNU-387 (Hepatocellular Carcinoma); experiment: as above
Summary of the method: as §1

[6] = test system: SW982 (Other Solid Carcinomas); experiment: as above
Summary of the method: as §1

[7] = test system: COLO-668 (Small Cell Lung Carcinoma); experiment: as above
Summary of the method: as §1

[8] = test system: NCI-H1355 (Lung Adenocarcinoma); experiment: as above
Summary of the method: as §1

[9] = test system: SW872 (Other Solid Carcinomas); experiment: as above
Summary of the method: as §1

[10] = test system: EFO-21 (Ovarian Carcinoma); experiment: as above
Summary of the method: as §1

[11] = test system: SK-LU-1 (Lung Adenocarcinoma); experiment: Bliss excess, mean over the matrix (fraction); higher = more synergy
Summary of the method: as §1

[12] = test system: SKN (Other Solid Carcinomas); experiment: as above
Summary of the method: as §1

[13] = test system: G-401 (Other Solid Carcinomas); experiment: combination Emax (second highest fraction inhibited in the dose matrix, 72 h); higher = more inhibition; extreme values may be limits of the assay
Summary of the method: as §1

[14] = test system: HCC2998 (Colorectal Carcinoma); experiment: as above
Summary of the method: as §1

[15] = test system: HCC1937 (Breast Carcinoma); experiment: as above
Summary of the method: as §1

[16] = test system: NCI-H650 (Lung Adenocarcinoma); experiment: as above
Summary of the method: as §1

[17] = test system: NCI-H1838 (Lung Adenocarcinoma); experiment: as above
Summary of the method: as §1

[18] = test system: CADO-ES1 (Ewing's Sarcoma); experiment: as above
Summary of the method: as §1

[19] = test system: LC-1-sq (Squamous Cell Lung Carcinoma); experiment: as above
Summary of the method: as §1

[20] = test system: NCI-H2122 (Lung Adenocarcinoma); experiment: as above
Summary of the method: as §1
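Throughout, for Bliss excess, mean over the matrix: after 72 h of two-drug dosing.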

Structure (SMILES) | combination Emax [1] | combination Emax [2] | combination Emax [3] | combination Emax [4] | combination Emax [5] | combination Emax [6] | combination Emax [7] | combination Emax [8] | combination Emax [9] | combination Emax [10] | Bliss excess [11] | Bliss excess [12] | combination Emax [13] | combination Emax [14] | combination Emax [15] | combination Emax [16] | combination Emax [17] | combination Emax [18] | combination Emax [19] | combination Emax [20]
CC1(C)CCC(CN2CCN(c3ccc(C(=O)NS(=O)(=O)c4ccc(NCC5CCOCC5)c([N+](=O)[O-])c4)c(Oc4cnc5[nH]ccc5c4)c3)CC2)=C(c2ccc(Cl)cc2)C1 [Venetoclax] + CS(=O)(=O)CCNCc1ccc(-c2ccc3ncnc(Nc4ccc(OCc5cccc(F)c5)c(Cl)c4)c3c2)o1 [Lapatinib] (first compound max 1 µM, 7x7, partner max 10 µM) | 0.595 | 0.127 | 0.213 | 0.196 | 0.078 | 0.437 | 0.282 | 0.16 | 0.0911 | 0.153 | -0.0772 | -0.0497 | – | – | – | – | – | – | – | –
CN(CCO)CC[C@H](CSc1ccccc1)Nc1ccc(S(=O)(=O)NC(=O)c2ccc(N3CCC([C@@H](O)c4ccccc4-c4ccc(Cl)cc4)CC3)cc2)cc1S(=O)(=O)C(F)(F)F [AZD4320] + CN(C)CCCOc1ccc(-c2ccc3ncc4c(c3c2)n(C2CCOCC2)c(=O)n4C)cn1 [AZD0156] (first compound max 1 µM, 7x7, partner max 1 µM) | 0.2 | 0.0779 | 0.135 | 0.127 | 0.183 | 0.225 | – | 0.162 | 0.148 | 0.179 | -0.0759 | -0.0296 | 0.266 | 0.554 | 0.439 | 0.203 | 0.225 | 0.611 | 0.217 | 0.24
CS(=O)(=O)CCNCc1ccc(-c2ccc3ncnc(Nc4ccc(OCc5cccc(F)c5)c(Cl)c4)c3c2)o1 [Lapatinib] + Cn1cnc2c(F)c(Nc3ccc(Br)cc3Cl)c(C(=O)NOCCO)cc21 [Selumetinib] (first compound max 10 µM, 7x7, partner max 10 µM) | 0.696 | 0.171 | 0.469 | 0.341 | 0.62 | 0.66 | 0.493 | 0.472 | 0.25 | 0.331 | -0.0145 | -0.0349 | – | – | – | – | – | – | – | –
Cc1c2c(nn1C)CSCc1cc(n(C)n1)CSc1cc(c3ccccc3c1)OCCCc1c(C(=O)O)n(C)c3c-2c(Cl)ccc13 [AZD5991] + CC(=O)O[C@H]1C(=O)[C@@]2(C)[C@H]([C@H](OC(=O)c3ccccc3)[C@]3(O)C[C@H](OC(=O)[C@H](O)[C@@H](NC(=O)c4ccccc4)c4ccccc4)C(C)=C1C3(C)C)[C@]1(OC(C)=O)CO[C@@H]1C[C@@H]2O [Paclitaxel] (first compound max 1 µM, 7x7, partner max 3 µM) | 0.508 | 0.686 | 0.986 | 0.694 | 0.913 | 0.953 | 0.46 | 0.76 | 0.869 | 0.368 | -0.0288 | -0.007 | – | – | – | – | – | – | – | –
C=CCn1c(=O)c2cnc(Nc3ccc(N4CCN(C)CC4)cc3)nc2n1-c1cccc(C(C)(C)O)n1 [AZD1775] + Nc1ccn([C@@H]2O[C@H](CO)[C@@H](O)C2(F)F)c(=O)n1 [Gemcitabine] (first compound max 1 µM, partner max 0.3 µM) | 0.717 | 0.542 | 0.938 | 0.633 | 0.552 | 0.888 | 0.738 | 0.614 | 0.825 | 0.482 | -0.0837 | -0.0709 | – | – | – | – | – | – | – | –
CS(=O)(=O)CCNCc1ccc(-c2ccc3ncnc(Nc4ccc(OCc5cccc(F)c5)c(Cl)c4)c3c2)o1 [Lapatinib] + NC1(c2ccc(-c3nc4ccn5c(=O)[nH]nc5c4cc3-c3ccccc3)cc2)CCC1 [MK-2206] (first compound max 10 µM, 7x7, partner max 10 µM) | 0.792 | 0.297 | 0.648 | 0.658 | 0.873 | 0.894 | 0.508 | 0.286 | 0.247 | 0.321 | -0.0239 | -0.0645 | – | – | 0.841 | 0.31 | 0.348 | – | – | –
O=C(c1cc(Cc2n[nH]c(=O)c3ccccc23)ccc1F)N1CCN(C(=O)C2CC2)CC1 [Olaparib] + CN(CC[C@H](CSC1=CC=CC=C1)NC2=C(C=C(C=C2)S(=O)(=O)NC(=O)C3=CC=C(C=C3)N4CCC(CC4)[C@H](C5=CC=CC=C5C6=CC=C(C=C6)Cl)O)S(=O)(=O)C(F)(F)F)CCO [AZD4320] (first compound max 10 µM, 7x7, partner max 1 µM) | 0.219 | 0.0992 | 0.344 | 0.174 | 0.304 | 0.709 | 0.823 | 0.198 | 0.133 | 0.172 | -0.0445 | -0.0712 | – | – | – | – | – | – | – | –
CN(CCO)CC[C@H](CSc1ccccc1)Nc1ccc(S(=O)(=O)NC(=O)c2ccc(N3CCC([C@@H](O)c4ccccc4-c4ccc(Cl)cc4)CC3)cc2)cc1S(=O)(=O)C(F)(F)F [AZD4320] + C=CCn1c(=O)c2cnc(Nc3ccc(N4CCN(C)CC4)cc3)nc2n1-c1cccc(C(C)(C)O)n1 [AZD1775] (first compound max 1 µM, partner max 1 µM) | 0.278 | 0.213 | – | 0.586 | 0.681 | 0.953 | – | 0.594 | 0.3 | 0.53 | -0.038 | 0.0666 | 0.901 | 0.899 | 0.791 | 0.564 | 0.541 | 0.566 | 0.869 | 0.953
C[C@@H]1COCCN1c1cc(C2([S@](C)(=N)=O)CC2)nc(-c2ccnc3[nH]ccc23)n1 [AZD6738] + Nc1ccn([C@@H]2O[C@H](CO)[C@@H](O)C2(F)F)c(=O)n1 [Gemcitabine] (first compound max 10 µM, 7x7, partner max 0.3 µM) | 0.801 | 0.583 | 0.967 | 0.71 | 0.718 | 0.949 | 0.854 | 0.722 | 0.907 | 0.625 | -0.0668 | 0.0033 | – | – | – | – | – | – | – | –
C[C@@H](Nc1cc(F)cc(F)c1)c1cc(C(=O)N(C)C)cc2c(=O)cc(N3CCOCC3)oc12 [AZD8186] + C1CN(CCC1(C(=O)N[C@@H](CCO)C2=CC=C(C=C2)Cl)N)C3=NC=NC4=C3C=CN4 [AZD5363] (first compound max 10 µM, 7x7, partner max 10 µM) | 0.618 | 0.189 | 0.621 | 0.557 | 0.472 | 0.512 | 0.327 | 0.395 | 0.427 | 0.235 | 0.02 | -0.1 | – | – | – | – | – | – | – | –
C[C@@H]1COCCN1c1cc(C2([S@](C)(=N)=O)CC2)nc(-c2ccnc3[nH]ccc23)n1 [AZD6738] + C1CC(C1)(C(=O)[O-])C(=O)[O-].N.N.[Pt+2] [Carboplatin] (first compound max 10 µM, 7x7, partner max 10 µM) | 0.521 | 0.351 | 0.723 | 0.427 | 0.289 | 0.665 | 0.567 | 0.581 | 0.456 | 0.263 | -0.0088 | -0.0766 | – | – | – | – | – | – | – | –
Cc1c2c(nn1C)CSCc1cc(n(C)n1)CSc1cc(c3ccccc3c1)OCCCc1c(C(=O)O)n(C)c3c-2c(Cl)ccc13 [AZD5991] + Nc1ccn([C@@H]2O[C@H](CO)[C@@H](O)C2(F)F)c(=O)n1 [Gemcitabine] (first compound max 1 µM, 7x7, partner max 0.3 µM) | 0.737 | 0.441 | 0.857 | 0.582 | 0.565 | 0.844 | 0.829 | 0.455 | 0.811 | 0.379 | -0.0518 | -0.0331 | – | – | – | – | – | – | – | –
C[C@@H](Oc1cc(-c2cnn(C3CCNCC3)c2)cnc1N)c1c(Cl)ccc(F)c1Cl [Crizotinib] + CC1=C(C(=CC=C1)Cl)NC(=O)C2=CN=C(S2)NC3=CC(=NC(=N3)C)N4CCN(CC4)CCO [Dasatinib] (first compound max 10 µM, 7x7, partner max 2 µM) | 0.815 | 0.462 | 0.928 | 0.866 | 0.743 | 1 | 0.415 | 0.289 | 0.615 | 0.701 | 0.02 | 0.0295 | – | – | – | – | – | – | – | –
O=C(c1cc(Cc2n[nH]c(=O)c3ccccc23)ccc1F)N1CCN(C(=O)C2CC2)CC1 [Olaparib] + Cc1c2c(nn1C)CSCc1cc(n(C)n1)CSc1cc(c3ccccc3c1)OCCCc1c(C(=O)O)n(C)c3c-2c(Cl)ccc13 [AZD5991] (first compound max 10 µM, 7x7, partner max 1 µM) | 0.0973 | 0.121 | 0.408 | 0.126 | 0.427 | 0.491 | 0.0291 | 0.146 | 0.157 | 0.117 | -0.0436 | -0.0407 | – | – | – | – | – | – | – | –
